Laboratory results published in PubChem BioAssay (NCI).
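These data come from cells grown in 96-well plates and exposed to compound for 48 hours at five concentrations. GI50 is the concentration that inhibits growth by half. At the TGI there is no net growth.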

Key:
Assay in all cases: NCI-60 cell line screen, 48 h
K-562 leukemia = system: K-562 leukemia
NCI-H23 lung = system: NCI-H23 lung
OVCAR-8 ovarian = system: OVCAR-8 ovarian
A549 NSCLC = system: A549 NSCLC
COLO 205 colon = system: COLO 205 colon
UO-31 renal = system: UO-31 renal
HCC-2998 colon = system: HCC-2998 colon
NCI/ADR-RES ovarian = system: NCI/ADR-RES ovarian
NCI-H522 lung = system: NCI-H522 lung
SW-620 colon = system: SW-620 colon
UACC-62 melanoma = system: UACC-62 melanoma
HOP-92 NSCLC = system: HOP-92 NSCLC
ACHN renal = system: ACHN renal
786-0 renal = system: 786-0 renal
SR leukemia = system: SR leukemia
SK-MEL-2 melanoma = system: SK-MEL-2 melanoma
SNB-75 CNS = system: SNB-75 CNS
CCRF-CEM leukemia = system: CCRF-CEM leukemia
MALME-3M melanoma = system: MALME-3M melanoma
SF-539 CNS = system: SF-539 CNS
OVCAR-5 ovarian = system: OVCAR-5 ovarian
HL-60(TB) leukemia = system: HL-60(TB) leukemia
HCT-116 colon = system: HCT-116 colon
HT29 colon = system: HT29 colon
SK-MEL-5 melanoma = system: SK-MEL-5 melanoma
MDA-MB-231 breast = system: MDA-MB-231 breast
T-47D breast = system: T-47D breast
RXF 393 renal = system: RXF 393 renal
KM12 colon = system: KM12 colon

## CCn1cnc(C[C@H](NC(=O)[C@@H](NC(=O)Nc2cc(C(F)(F)F)cc(C(F)(F)F)c2)C(C)C)C(=O)OC)c1
K-562 leukemia
  GI50: 6.38 µM
  TGI: > 10 µM
NCI-H23 lung
  GI50: 2690 nM
  TGI: > 10 µM
OVCAR-8 ovarian
  GI50: 1950 nM
  TGI: 3.74 µM
A549 NSCLC
  GI50: 3.19 µM
  TGI: > 10 µM
COLO 205 colon
  GI50: 2610 nM
  TGI: 7.07 µM
UO-31 renal
  GI50: > 10 µM
  TGI: > 10 µM
HCC-2998 colon
  GI50: 2270 nM
  TGI: 5.32 µM
NCI/ADR-RES ovarian
  GI50: > 10 µM
  TGI: > 10 µM
NCI-H522 lung
  GI50: 1780 nM
  TGI: 3.98 µM
SW-620 colon
  GI50: 2010 nM
  TGI: 4.01 µM
UACC-62 melanoma
  GI50: 6.45 µM
  TGI: > 10 µM
HOP-92 NSCLC
  GI50: 6.88 µM
  TGI: > 10 µM
ACHN renal
  GI50: 5.94 µM
  TGI: > 10 µM
786-0 renal
  GI50: 1810 nM
  TGI: 3.67 µM
SR leukemia
  GI50: 2380 nM
  TGI: 7.86 µM
SK-MEL-2 melanoma
  GI50: > 10 µM
  TGI: > 10 µM
SNB-75 CNS
  GI50: 1610 nM
  TGI: 6.82 µM
CCRF-CEM leukemia
  GI50: 3.38 µM
  TGI: > 10 µM
MALME-3M melanoma
  GI50: > 10 µM
  TGI: > 10 µM
SF-539 CNS
  GI50: 3.36 µM
  TGI: > 10 µM
OVCAR-5 ovarian
  GI50: 4.98 µM
  TGI: > 10 µM
HL-60(TB) leukemia
  GI50: 6.18 µM
  TGI: > 10 µM
HCT-116 colon
  GI50: 1860 nM
  TGI: 3.93 µM
HT29 colon
  GI50: 2020 nM
  TGI: 4.1 µM
SK-MEL-5 melanoma
  GI50: 4.31 µM
  TGI: > 10 µM
MDA-MB-231 breast
  GI50: 1900 nM
  TGI: 4.11 µM
T-47D breast
  GI50: 3.66 µM
  TGI: > 10 µM
RXF 393 renal
  GI50: 1730 nM
  TGI: 3.32 µM
KM12 colon
  GI50: 1890 nM
